Experimental data: paper PMC11078216, “Discovery of potent and selective activity-based probes (ABPs) for the deubiquitinating enzyme USP30” (RSC Chemical Biology, 2024)

Molecular target: T1, USP30 (Homo sapiens, UniProt Q70CQ3)
T1 construct: We next determined cellular engagement of endogenous USP30 with IMP-2587 or IMP-2586; endogenous in cells; host or cells: HEK293T
T1 sequence (Q70CQ3 1-517): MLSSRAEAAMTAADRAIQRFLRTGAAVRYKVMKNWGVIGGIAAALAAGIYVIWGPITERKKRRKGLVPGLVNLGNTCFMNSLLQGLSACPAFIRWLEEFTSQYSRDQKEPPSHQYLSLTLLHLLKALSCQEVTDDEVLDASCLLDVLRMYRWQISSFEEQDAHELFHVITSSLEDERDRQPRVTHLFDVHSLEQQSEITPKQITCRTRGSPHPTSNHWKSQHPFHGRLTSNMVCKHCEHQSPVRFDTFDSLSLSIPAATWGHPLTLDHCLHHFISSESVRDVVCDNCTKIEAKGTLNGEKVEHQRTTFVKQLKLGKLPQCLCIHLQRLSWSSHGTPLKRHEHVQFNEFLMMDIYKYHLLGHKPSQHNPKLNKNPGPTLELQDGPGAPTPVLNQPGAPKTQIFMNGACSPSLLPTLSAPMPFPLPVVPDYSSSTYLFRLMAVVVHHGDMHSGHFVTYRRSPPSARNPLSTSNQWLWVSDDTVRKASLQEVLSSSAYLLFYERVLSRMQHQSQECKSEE
Test: Biotin pulldown (Neutravidin enrichment) and immunoblotting for USP30
Type: cell-based
Conditions: HEK293T, 1 h; for extent of USP30 engagement and enrichment: 100 nM probe, pulldown; for probe concentration at which USP30 was enriched (pulldown) / probe concentration of maximal USP30 enrichment (pulldown): biotin pulldown and immunoblotting
Method: We next determined cellular engagement of endogenous USP30 with IMP-2587 or IMP-2586. […] In-cell concentration-dependent competition by IMP-2587 and IMP-2586 for USP30 were confirmed below 100 nM probe (Fig. 2b and c), whilst engagement of an exemplar unrelated DUB, UCHL1, occurred only at a much higher concentration (30 000 nM). We hypothesise that incomplete modification of USP30 by HA-Ub-VME is likely due to limited retention of USP30 activity in cell lysates, which have likely had the USP30 transmembrane domain compromised, highlighting the potential utility of a small molecule USP30 ABP applicable directly in intact cells. Direct USP30 target engagement by IMP-2587 and IMP-2586 was confirmed in HEK293T cells following 1 h probe treatment followed by cell lysis and CuAAC bio-orthogonal ligation to capture reagent azido-TAMRA-biotin (AzTB) for IMP-2587 or alkyne-TAMRA-biotin for IMP-2586 (Fig. 3a).[27] […] This unspecific background labelling is presumably due to the previously reported higher off-target CuAAC reactivity of an alkyne-bearing capture reagent, applied here due to incorporation of an azide tag in IMP-2586.[28] Moreover, the labelling of USP30 was further confirmed by biotin pulldown and immunoblotting. […]
d) Live cell probe incubation, lysate click chemistry and precipitation 6-well HEK293T cells were incubated with media containing compounds ABP 2 and ABP 4 at indicated concentrations for 1 h at 37 °C. The cells were washed with PBS and lysed with lysis buffer (50 μL (1% (v/v) Triton X-100, 0.1% (w/v) sodium dodecyl sulfate (SDS), EDTA-free complete protease inhibitor cocktail (1×, Roche) in PBS on ice for 10 min. The lysates were scraped and transferred to corresponding Lo-Bind Eppendorfs. Each lysate was sonicated for 1 minute, and the samples centrifuges at 5,000 x g at 4 °C for 5 minutes to pellet insoluble cellular debris. The supernatant was collected, and protein concentration was determined using the DC Protein Assay (Bio-Rad) as per manufacturer’s instructions, and normalised to lowest concentrated sample (e.g. 1 mg/mL, using lysis buffer). The following “click mixture” was prepared separately, preparing 6 μL for every 100 μL of […]
Capture reagent (AzRB/AzT for ABP 2, YnT/YnB for ABP 4 10 mM in DMSO, 1 vol; final concentration […]
CuSO4 (50 mM in water, 2 vol; final concentration in reaction 1 mM)
TCEP (50 mM in water, 2 vol; final concentration in reaction 1 mM)
TBTA (10 mM in DMSO, 1 vol; final concentration in reaction 100 µM)
The click mixture was vortexed and incubated at room temperature for 2 min before 6 μL of the mixture was added to every 100 μL of lysate. The reaction mixtures were shaken at room temperature for 1 h before being quenched with EDTA (500 mM in H2O) to a final concentration of 10 mM.
Proteins were precipitated by adding H2O (1 vol), MeOH (2 vol) and CHCl3 (0.5 vol), vortexing briefly then centrifuging at 17,000 × g for 5 min. The top H2O/MeOH layer was discarded and the middle layer of protein pellet and lower CHCl3 layer retained. The suspension was washed with MeOH (300 μL), and sonicated to break up the pellet. The proteins were pelleted by centrifugation at 10,000–17000 × g for 5–10 min or until a compact pellet was formed. The protein pellet was washed once more with MeOH (1 mL). The pellet was resuspended by sonicating and completely dissolving in 1% (w/v) SDS in PBS (to 5 mg/mL protein) before being made up to 1 mg/mL protein with PBS.
The lysate samples (10-20 μg) were mixed with 4× Laemmli sample loading buffer (250 mM Tris -HCl pH 6.8, 30% (v/v) glycerol, 10% (w/v) SDS, 0.05% (w/v) bromophenol blue) supplemented with 20% v/v β-mercaptoethanol (BME) and boiled for 10 min at 95 °C. The resulting protein samples were separated according to the protocol in section 3.2.c. Gel were imaged on a Typhoon imager (GE Healthcare; λEx 532 nm, λEm 575 nm for TAMRA. For protein loading quantification, gels were stained with Coomassie blue staining solution overnight, rinsed with water and imaged on an ImageQuant™ […]

Compound	extent of USP30 engagement and enrichment	probe concentration at which USP30 was enriched (pulldown) [nM]	probe concentration of maximal USP30 enrichment (pulldown) [nM]
N#CN1CC[C@@H](NC(=O)c2cc(-c3ccccc3Oc3ccc(N=[N+]=[N-])cc3)n[nH]2)C1 [IMP-2586]	almost complete engagement and enrichment	10	100
C#Cc1cccc(-c2cc(NC(=O)CC3CCN(C#N)C3)on2)c1 (stereo not drawn) [IMP-2587]	almost complete engagement and enrichment	10	100
